From PubChem BioAssay AID743307 (Sanford-Burnham Center for Chemical Genomics, 2014)

Molecular target: Low molecular weight phosphotyrosine protein phosphatase (Homo sapiens) (UniProt P24666)
Assay: inhibition of LMPTP-A enzymatic activity – biochemical, OMFP substrate, fluorescence intensity, set 2, dose response (AID 743307)
Details: LMPTP-A enzyme, OMFP fluorogenic substrate

Low molecular weight phosphotyrosine protein phosphatase (Homo sapiens), sequence (P24666 whole entry, looked up): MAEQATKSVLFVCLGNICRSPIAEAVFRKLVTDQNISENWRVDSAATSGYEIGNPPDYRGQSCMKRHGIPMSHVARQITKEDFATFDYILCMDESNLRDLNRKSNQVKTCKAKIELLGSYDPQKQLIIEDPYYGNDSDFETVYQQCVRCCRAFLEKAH

IC50: 1680 nM
Compound: COc1ccc(-c2cc(NCCCN3CCCCC3)c3ccccc3n2)cc1
